Test results: patent US7875603B2, “Specific inhibitors for vascular endothelial growth factor receptors” (Nova Southeastern University, priority 2006, dated 2011)

What was measured:
Assay type in all cases: cell-based
[1] = tested on: Human umbilical vein endothelial cell; test: In Vitro Angiogenesis Assay (morphogenesis / tube formation on Matrigel); set-up: key to In Vitro Angiogenesis Assay Results (score of extent of cellular networks): Individual cells, well separated (+++++); Cells begin to migrate and align themselves (++++); Cells begin to line but not sprouting (+++); Visible Sprouting (++); Closed polygons begins to form (+); settings: for In Vitro Angiogenesis Assay Results (score of extent of cellular networks): HUVECs 10^4 cells/well on ECMatrix, inhibitors 1 mM and 10 mM, 8 hours at 37° C., higher score = greater inhibition of angiogenesis
Experimental: In Vitro Angiogenesis Assay
Human umbilical vein endothelial cell was purchased from Cambrex Co. (East Rutherford, N.J.) and maintained in EGM (Endothelial Growth Medium) supplemented with 2% FBS, 0.1% EGF, 0.1% Hydrocortisone, 0.1% GA-1000 and 0.4% BBE.
The morphogenesis assay on Matrigel was performed according to the manufacturer's instructions (Chemicon International). The ECMatrix™ kit consists of laminin, collagen type IV, heparan sulfate, proteoglycans, entactin and nidogen. It also contains various growth factors (TGF-β, FGF) and proteolytic enzymes (plasminogen, tPA, MMPs) that are normally produced in EHS tumors. The incubation condition was optimized for maximal tube-formation as follows: 50 μl of EC Matrix™ was suitably diluted in the ratio 9:1 with 10×diluent buffer and used for coating the 96-well plate. The coated plates were incubated at 37° C. for 1 hr. to allow the Matrix solution to solidify. In the meantime the HUVECs that were cultured for 24 hours in EGM with 2% FBS was trypsinised and re-suspended in the growth media and the cells were counted. After 1 hr. pre-incubation of the plate with Matrix solution, the HUVECs were plated at 10^4 cells/well in the absence or in the presence of different VEGFR inhibitors (1 mM and 10 mM). After 8 hours incubation at 37° C., the cell three-dimensional organization (cellular network structures) was examined under an inverted photomicroscope. Each treatment was performed in triplicate.
Activated endothelial cells form cellular networks (mesh like structures) resembling capillary tubes sprouting into the stromal space. The formation of these cellular networks is a dynamic process, which started migration and alignment of cells followed by the development of capillary tubes like structures, sprouting of new branches and finally the formation of the cellular networks. Although this in vitro angiogenesis kit is designed only as a qualitative assay, we have made an attempt to quantitate the degree of angiogenesis using a scoring method. The scoring was based on the extent of the cellular networks that were observed as follows:
Individual cells, well separated (+++++)
Cells begin to migrate and align themselves (++++)
Cells begin to line but not sprouting (+++)
Closed polygons begins to form (+).
According to our qualitative assessment, the higher the scoring the greater the efficiency of the compound for inhibiting endothelial cell mediated angiogenesis.

GI-101A = test: Cytotoxicity towards GI-101A breast carcinoma cell line
MCF-7 = test: Cytotoxicity towards MCF-7 breast carcinoma cell line

| SMILES | In Vitro Angiogenesis Assay Results (score of extent of cellular networks) [1] | EC50 ([1]; Homo sapiens, estimated, in vitro angiogenesis assay, HUVEC, read-out: EC50 value for anti-antigenic effect) [nM] | cytotoxicity towards GI-101A (GI-101A) | cytotoxicity towards MCF-7 (MCF-7) |
| --- | --- | --- | --- | --- |
| CCCCCCCCCCOc1ccc(C(=O)N/N=C/c2ccc(OC)cc2)cc1 [Example 3] | ++++ | – | – | – |
| CCCCCCCCCCCCCCCCCCOc1ccc(C(=O)CC(=O)Nc2ccc(Sc3cccc(C(=O)O)c3)c(C(=O)O)c2)cc1 [Example 5] | +++ | – | – | – |
| COc1ccc(NCC(O)Cn2cnc3c2c(=O)n(C)c(=O)n3C)cc1 (stereo not shown) [Example 1] | +++++ | 250 | produced cytotoxicity | produced cytotoxicity |
| CCCCCCCCCCCCCCCCCCOc1ccc(C(=O)CC(=O)Nc2ccc(Oc3ccc(C(=O)O)cc3)c(C(=O)O)c2)cc1 [Example 6] | ++ | – | – | – |
| CCCCCCCCCCCCCCCCOc1ccc(C(NNS(=O)(=O)c2cccc(C(=O)O)c2)N2CCCCC2)cc1 (stereo not shown) [Example 2] | ++++ | – | – | – |
| CCC(CNCCO)Nc1nc2c(c(=O)n(C)c(=O)n2C)n1Cc1ccccc1 (stereo not shown) [Example 7] | ++ | – | – | – |
| CCCCCCCOc1ccc(/C=N\NC(=O)c2ccc(Br)cc2)cc1 [Example 4] | +++ | – | – | – |
